Data reported in the METLIN SMRT retention time set (Domingo-Almenara et al. 2019).

Assay: gradient 5% acetonitrile 3 min, to 50% in 2 min, to 85% in 15 min, held 3 min, 100 µL/min
Settings: column: Zorbax Extend-C18 2.1 x 50 mm; eluents: water / acetonitrile, 0.1% formic acid
Outline: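 Standards, all pure, were combined into mixtures of ~100 molecules and run at 100 μL/min on a Zorbax Extend-C18 column (2.1 × 50 mm, 1.8 μm) with water and acetonitrile, each containing 0.1% formic acid. A coupled quadrupole time-of-flight mass spectrometer operated in positive and negative ionization mode. Retention time values come from computationally picked adduct peaks, each inspected manually.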

| RP-LC retention time [s] | SMILES |
| --- | --- |
| 829 | CCc1cc(=O)n(CC(=O)Nc2cccc(C(C)C)c2)c(N2CCOCC2)n1 |
| 891 | CN1C(=O)c2ccccc2Oc2ccc(C(=O)NC3CCCCC3)cc21 |
| 730 | CCc1ccccc1NC(=O)N(C)CC1CCOCC1 |
| 1010 | Cc1ccc(CNC(=O)Cn2c(=O)cc(-c3nc(C(C)C)no3)c3ccccc32)cc1 |
| 703 | Cc1ccc2c(=O)c(C(=O)N3CCCC3)cn(CC(=O)Nc3cc(F)ccc3F)c2n1 |
| 680 | CC(C)N1C(=O)c2cccnc2Sc2cc(NC(=O)C3CCOC3)ccc21 (stereo not given) |
| 638 | CCc1nc(N)n(CC(=O)Nc2cccc(C)c2C)c(=O)c1C |
| 593 | CN(C)S(=O)(=O)c1ccc(-c2nnc(C(=O)NCCCN3CCCC3)o2)cc1 |
| 828 | CCc1nc(-c2c(C)cc(C)nc2NC(=O)c2ccccc2Br)no1 |
| 871 | Cc1ccc(NC(=O)Cn2nc3c(Oc4cc(C)cc(C)c4)nccn3c2=O)cc1 |
| 675 | CC(C)(C)NC(=O)CN1CCC(c2nc(-c3ccc(F)cc3)no2)CC1 |
| 690 | CCN(CC)c1cc(CNC(=O)Nc2cc(Cl)ccc2OC)ccn1 |
| 663 | Cn1c(=O)c(=O)n(C)c2cc(N3CCOCC3)c(NC(=O)c3ccco3)cc21 |
| 960 | CCCn1cc(S(=O)(=O)Nc2cc(C)ccc2C)c2cccnc21 |
| 865 | CCC(=O)Nc1ccc(-n2cnc(C(=O)N3CCN(c4ccc(C)cc4C)CC3)c2)nc1 |
| 808 | CN(CCc1noc(-c2ccc(C(=O)N3CCCC3)cc2)n1)C(=O)COc1ccc(Cl)cc1 |
| 968 | Cc1cc(C)n(-c2nc(CC(=O)N3CCN(c4ccc(F)cc4)CC3)cs2)n1 |

| RP-LC retention time [s] | SMILES |
| --- | --- |
| 1050 | Cc1c(C(=O)NCC(C)C)cnn1-c1ccc(-c2nc(C(C)C)no2)cn1 |
| 922 | CC(C)N1C(=O)c2cccnc2Sc2cc(NC(=O)CCc3ccccc3)ccc21 |
| 1190 | CSc1cccc(NC(=O)Cn2ncc3c(c2=O)N(CC2CC2)C(=O)CS3)c1 |
| 646 | CCc1cc(C(=O)N2CCN(CC)CC2)nc2cc(-c3cccs3)nn12 |
| 570 | Cc1ccc(NC(=O)C2CCc3sc(C(=O)N4CCOCC4)cc3C2)cc1C (stereo not given) |
| 1250 | Cc1cc(NC(=O)c2ccccc2C(F)(F)F)n(-c2nc(-c3cccs3)cs2)n1 |
| 711 | COc1ccc(CNC(=O)Cn2c(C)nc3onc(C)c3c2=O)cc1 |
| 1040 | O=C(Nc1cccc(Br)c1)c1cccn1Cc1noc(C2CC2)n1 |
| 1030 | CCn1cc(-c2nc(C(=O)Nc3cc(OC)cc(OC)c3)cs2)c2cccnc21 |
| 595 | CCN(CC)CCCNC(=O)CN1C(=O)C2CCCCN2c2ccc(C(=O)N(C)C)cc21 (stereo not given) |
| 752 | CCC(=O)Nc1nc(-c2ccc3c(c2)N(CC)C(=O)CO3)cs1 |
| 1020 | CCc1noc(-c2ccc(-n3ncc(C(=O)N4CCC(C)CC4)c3C)nc2)n1 |
| 583 | Cc1cc2nc(C)c(=O)n(CC(=O)NCCN(C)C)c2cc1C |
| 835 | COc1ccc(N2CC(c3nnc(NC(=O)c4ccc(Cl)cc4)o3)CC2=O)cc1 (stereo not given) |
| 762 | Cc1ccc(NC(=O)c2cnn3c2CCCC3)c(C)c1 |
| 669 | Fc1ccc(-c2csc(Nc3cccnc3)n2)cc1 |

More lines, now with the values behind:

| SMILES | RP-LC retention time [s] |
| --- | --- |
| COc1ccc(C(=O)N2CCC(n3nc(-c4ccsc4)ccc3=O)CC2)cc1 | 797 |
| OC[C@@H]1CNC[C@H]1C1CCN(Cc2cccc(Cl)c2F)CC1 | 806 |
| Cc1cccc(OCC(=O)N2CCC3(C2)C(=O)N(C)c2ccccc23)c1 (stereo not given) | 825 |
| Cc1ccnc(N2CCC(C(=O)NCc3ccco3)CC2)n1 | 624 |
| CCN1CCN(CCNC(=O)C2CCCN(c3ncc(-c4cccc(F)c4)cn3)C2)CC1 (stereo not given) | 632 |
| Cn1nnc2c(N3CCN(C(=O)c4c(F)cccc4Cl)CC3)ncnc21 | 687 |
| CCc1c(C(=O)O)nnn1Cc1ccccc1 | 701 |
| CN(CC1(C)CCOCC1)S(=O)(=O)c1cccc(F)c1 | 895 |
| CCC(=O)NCCc1csc(C2CCCN(C(=O)C3CCC3)C2)n1 (stereo not given) | 676 |
| Cn1nc(-c2nc(-c3cccc(F)c3)no2)c2c1CCN(C(=O)NC1CCCC1)C2 | 957 |
| Cc1ccnc(N2CCCC(C(=O)NCCCN3CCCCCC3)C2)n1 (stereo not given) | 586 |
| COC(=O)c1ccc(COc2cc(O)c3c(=O)cc(-c4ccccc4)oc3c2)cc1 | 1290 |
| CCc1noc(C2(NC(=O)c3ccc(Cl)cc3)CCCCC2)n1 | 1010 |
| COc1cccc(NC(=O)Cn2nc3c(N4CCCCCC4)nccn3c2=O)c1 | 700 |
| O=C(NCc1ccc(F)cc1)C1CCN(c2cc(N3CCCCC3)ncn2)CC1 | 676 |
| Cc1ncoc1C(=O)N1CCC(c2noc(-c3cnccn3)n2)C1 (stereo not given) | 620 |
| COc1ccc(N2C=C(C#N)S(=O)(=O)c3c(F)cccc32)c(OC)c1 | 893 |
| O=C(NCCCN1CCCC1)C1CCN(c2nc3cccnc3s2)CC1 | 585 |
| COCc1cnc2c(c1SCc1cccc(Cl)c1)c(=O)n(C)c(=O)n2C | 1060 |

| SMILES | RP-LC retention time [s] |
| --- | --- |
| Cc1ccc2c(Nc3ccc4c(c3)OCO4)c(-c3nc(C4CC4)no3)cnc2n1 | 736 |
| CCn1c(CCc2ccccc2NS(=O)(=O)c2ccc(F)cc2F)nc2ccccc21 | 755 |
| CC1(C(=O)NCc2ccccc2)CCN(C(=O)Nc2cccc(C(F)(F)F)c2)CC1 | 919 |
| CCOC(=O)c1c(S(=O)(=O)N2CCC(C(=O)Nc3ccccc3)CC2)c(C)n(C)c1C | 834 |
| Cn1c(=O)c(=O)n(C)c2cc(N3CCCCC3)c(NC(=O)CN3CCCC3)cc21 | 599 |
| O=C(O)c1ccc(N2CCCC(CN3CCCC3)C2)c(NS(=O)(=O)c2ccccc2)c1 (stereo not given) | 643 |
| CC1CCN(C(=O)CSc2nnc(-c3ccc(F)cc3)o2)CC1 | 958 |
| CCCS(=O)(=O)N1CC(c2nnc(-c3ccncc3)o2)C2(CCOCC2)C1 (stereo not given) | 625 |
| CCOc1ccc(-n2nnc(C(=O)OC)c2C(=O)OC)cc1 | 882 |
| COCCn1cc(CCNC(=O)Nc2cc(Cl)ccc2C)c2cccnc21 | 795 |
| O=C(NC1CCCC1)c1cccc2c1CCN2C(=O)c1ccc(F)cc1 | 862 |
| CN(C)C(=O)c1cn(C2CN(S(=O)(=O)c3cccc4nsnc34)C2)nn1 | 657 |
| COc1ccc(-c2nc(Cn3ccn4nc(-c5ccccc5)cc4c3=O)c(C)o2)cc1 | 1100 |
| COc1ccc(-c2ccc(C#N)c(SCC(=O)N3CCN(C)CC3)n2)cc1 | 583 |
| Cc1ccccc1-n1ccn(Cc2nc(-c3ccccc3)no2)c(=O)c1=O | 809 |
| O=C1[C@H]2CN(Cc3cc(Br)ccc3F)C[C@H]2C(=O)N1CCc1ccccc1 | 1030 |
| CC1CCCCN1CCNS(=O)(=O)c1ccccc1-c1nc(-c2cccc(F)c2)no1 (stereo not given) | 746 |
| O=C(Nc1cnc(N2CCCC2)nc1)c1ccccc1C(F)(F)F | 740 |
| O=c1c2sccc2n(Cc2nc(-c3ccccc3)no2)c(=O)n1-c1ccc(Cl)cc1 | 1040 |

| SMILES | RP-LC retention time [s] |
| --- | --- |
| CCn1ncc(CN2CCCCC2CCn2cc(-c3ccccc3)nn2)c1C (stereo not given) | 530 |
| Cc1c(N2CCC(C(=O)NCC3CCCO3)CC2)c(=O)n(CC(C)C)c(=O)n1-c1ccccc1 (stereo not given) | 832 |
| Cc1ccc(-c2noc(C3CC3)n2)cc1S(=O)(=O)N1CCC(C(=O)N2CCc3ccccc32)CC1 | 1140 |
| COc1ccccc1NC(=O)c1cnc2c(c1)c(=O)n(C)c(=O)n2-c1ccc(C)cc1 | 944 |
| COc1ccc(Cc2nc(-c3ccc4c(c3)nc(C)c(=O)n4C)no2)cc1OC | 894 |
| Cc1ccc(-n2c(=O)n(C)c(=O)c3cc(C(=O)Nc4ccccc4)cnc32)cc1 | 926 |
| Cc1noc(C)c1CCC(=O)NCCOc1cccc2cccnc12 | 548 |
| Cc1nnc(-c2nnc(NCc3cccc(F)c3)c3ccccc23)o1 | 826 |
| Cc1cc(F)ccc1NS(=O)(=O)c1cc(-c2[nH]ncc2C(=O)N2CCOCC2)oc1C | 678 |
| Cc1sc2ncnc(N3CCCC(C)C3)c2c1C(=O)Nc1cc(F)c(F)cc1F (stereo not given) | 858 |
| Cc1sc(C)c(S(=O)(=O)N2CCc3ccccc3C2)c1-c1cc(C(F)(F)F)on1 | 1280 |
| O=C(NCCn1c(CCc2ccccc2)nc2ccccc21)NCc1ccco1 | 656 |
| COC(=O)c1sc2cccc(F)c2c1S(=O)(=O)N1CCC(C(N)=O)(N2CCCCC2)CC1 | 649 |
| O=C(NCCC1=CCCCC1)C1CCCN(c2ccc3nncn3n2)C1 (stereo not given) | 770 |
| CCn1cc(S(=O)(=O)NCc2cccc(Cl)c2)c2cccnc21 | 862 |
| O=C(O)c1cc2c([nH]c1=O)CCCC2O (stereo not given) | 516 |
| Cc1ccccc1-c1nc2cnccn2c1NCCC(=O)NCc1ccco1 | 624 |
| O=C(NCc1ccc(F)cc1)c1ccc(-c2cccs2)nc1 | 869 |
| COc1ccc(-c2nc3cnccn3c2Nc2cc(C)cc(C)c2)cc1 | 952 |
